Reference: patent US20020192736A1, “Assay of peroxidase activity” (Pierce Chemical Company, priority 2001, published 2002)
Where “and” joins values, the source holds several entries; their conditions need not be identical. Identical values can stand only once. Like-named read-outs stand apart in the source and are kept apart here. Values belong to the molecule of their own block, whether it stands above or below them.

Tests used:
[1] = molecular target: horseradish peroxidase labeled streptavidin (SA-HRP) (Armoracia rusticana, UniProt P00433); assay: Dot blot assay on nitrocellulose membrane, film densitometry (relative intensity); assay type: biochemical
B-HRP = molecular target: T1, B-HRP (Armoracia rusticana, UniProt P00433); assay: Dot blot assay with B-HRP, film densitometry; conditions: for Net Relative Intensity at 0.98 pg B-HRP / Net Relative Intensity at 3.9 pg B-HRP / Net Relative Intensity at 62.5 pg B-HRP / Net Relative Intensity at 250 pg B-HRP: […] Azine Enhancer, 5 mM Sodium Luminol
T1 sequence (P00433 31-338): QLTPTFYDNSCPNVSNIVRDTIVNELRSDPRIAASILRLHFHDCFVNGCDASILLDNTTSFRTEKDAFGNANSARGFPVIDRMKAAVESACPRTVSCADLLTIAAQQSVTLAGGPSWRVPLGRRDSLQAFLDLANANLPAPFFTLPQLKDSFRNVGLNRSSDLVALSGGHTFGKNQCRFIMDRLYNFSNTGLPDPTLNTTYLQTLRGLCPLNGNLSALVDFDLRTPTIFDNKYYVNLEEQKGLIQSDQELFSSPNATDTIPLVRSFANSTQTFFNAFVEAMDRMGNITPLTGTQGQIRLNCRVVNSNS

oxidized peroxidase = assay: Poisoning of the chemiluminescent system; assay type: biochemical; conditions: azine with hydrogen atom bonded to the ring nitrogen
Experimental: The contaminant has been identified as a reducing azine species wherein the azine is capable of donating an electron or otherwise reacting with oxidized peroxidase (or peroxidase equivalent). […] This characterization has been made both by theoretic analysis, chemical analysis to determine the presence of the 10=H species, and by reconstruction experiments wherein the “poisoning azine” was added to highly purified azine compositions in order to quantitate the poisoning effects, and to establish the preferred purity of the azine enhancers. […] Concentrations or absolute amounts of a target analyte, which are one-tenth the minimum detectable by other systems can be detected in preferred systems of the invention. […]
This species is a non-enhancing oxidized species of […]. […] If a thiazine with a hydrogen in the 10-yl position is proven to be a non-poisoning species (by its inability to readily react with oxidized peroxidase at room temperature), its presence in or absence from the solution is inconsequential. […] By describing these compounds as inert or not readily reactive with oxidized peroxidase, the basis for the consideration of these terms is visible effects upon luminescence in a peroxidase system. […]

[2] = 20 pg SA-HRP, enhancer concentrations as in row ([…] 1c; 52 μM 1c; 52 μM 1b; 13.5 μM 3)
[3] = 30 minute reexposure, working solutions: […] 1c, 52 μM 1c, 52 μM 1b, 13.5 μM 3, 52 μM 1b + 13.5 μM 3
[4] = 50 μM Azine Enhancer, 1 mM Sodium Luminol
[5] = […] Azine Enhancer, 5 mM Sodium Luminol

Relative Intensity 1 minute [1, 2]: 747,888
Relative Intensity 5 minutes [1, 2]: 707,432
Relative Intensity 30 minutes [1, 2]: 598,082
Relative Intensity 1 hours [1, 2]: 492,016
Relative Intensity 2 hours [1, 2]: 274,888
Relative Intensity 24 hours [1, 2]: 0
Relative Intensity 2 pg SA-HRP [1, 3]: 0
Relative Intensity 5 pg SA-HRP [1, 3]: 106,776
Relative Intensity 20 pg SA-HRP [1, 3]: 598,072
Molecule: O=C1C=CC(=Nc2ccc(O)cc2)C=C1 [Phenolic Enhancer 3, Phenolindophenol/indophenol]

Molecule: CC(CN1c2ccccc2Sc2ccccc21)C[N+](C)(C)C.[Cl-] (stereo not drawn) [Azine Enhancer 1g]
Net Relative Intensity at 0.98 pg B-HRP (B-HRP): 0
Net Relative Intensity at 3.9 pg B-HRP (B-HRP): 0
Net Relative Intensity at 62.5 pg B-HRP (B-HRP): 2.16
Net Relative Intensity at 250 pg B-HRP (B-HRP): 17.92

Molecule: 2-chloro-10 (3 trimethyl amino propyl)-phenothiazonan bromide [Azine Enhancer 1d]
Net Relative Intensity at 1000 pg SA-HRP [1]: 1,106,656 and 1,538,600
Net Relative Intensity at 0.98 pg B-HRP (B-HRP): 0
Net Relative Intensity at 3.9 pg B-HRP (B-HRP): 0
Net Relative Intensity at 62.5 pg B-HRP (B-HRP): 1.70
Net Relative Intensity at 250 pg B-HRP (B-HRP): 15.63

Molecule: O=S(=O)([O-])CCCCN1c2ccccc2Sc2ccccc21.[Na+] [Azine Enhancer 1f]
Net Relative Intensity at 0.98 pg B-HRP (B-HRP): 12.05
Net Relative Intensity at 3.9 pg B-HRP (B-HRP): 28.77
Net Relative Intensity at 62.5 pg B-HRP (B-HRP): 91.44
Net Relative Intensity at 250 pg B-HRP (B-HRP): 151.53

Molecule: [O-][O+]1c2ccccc2Nc2ccccc21 [phenoxazine-5-oxide]
poisoning of the chemiluminescent system (oxidized peroxidase): does not poison the system

Molecule: CN1c2ccccc2Sc2ccccc21 [Azine Enhancer 1b, N-Methylphenothiazine]
Net Relative Intensity at 10 pg SA-HRP [1]: 0
Net Relative Intensity at 100 pg SA-HRP [1]: 0
Relative Intensity 2 pg SA-HRP [1]: 0
Relative Intensity 5 pg SA-HRP [1]: 0
Relative Intensity 20 pg SA-HRP [1]: 573,864
Relative Intensity 1 minute [1]: 457,800
Relative Intensity 5 minutes [1]: 628,408
Relative Intensity 30 minutes [1]: 573,864
Relative Intensity 1 hours [1]: 502,376
Relative Intensity 24 hours [1]: 0

Molecule: c1ccc2c(c1)Nc1ccccc1S2 [Azine Poison 1a, phenothiazine]
Background RI at 0 pg of B-HRP (B-HRP): 7.74 and 6.15 and 6.01 and 7.24
Relative Intensity at 250 pg of B-HRP (B-HRP): 180.38 and 209.39 and 165.28

Molecule: O=C(O)CCCN1c2ccccc2Sc2ccccc21 [Azine Enhancer 1e]
Net Relative Intensity at 10 pg SA-HRP [1, 4]: 1,416,056
Net Relative Intensity at 100 pg SA-HRP [1, 4]: 4,351,240
Net Relative Intensity at 1000 pg SA-HRP [1, 4]: 9,599,880
Net Relative Intensity at 10 pg SA-HRP [1, 5]: 432,352
Net Relative Intensity at 100 pg SA-HRP [1, 5]: 3,021,440
Net Relative Intensity at 1000 pg SA-HRP [1, 5]: 8,706,320

Molecule: O=S(=O)([O-])CCCCN1c2ccccc2Sc2ccc(Cl)cc21.[Na+] [Azine Enhancer 1h]
Net Relative Intensity at 0.98 pg B-HRP (B-HRP): 0.20
Net Relative Intensity at 3.9 pg B-HRP (B-HRP): 0.55
Net Relative Intensity at 62.5 pg B-HRP (B-HRP): 44.09
Net Relative Intensity at 250 pg B-HRP (B-HRP): 75.58
